Assays:
PPARγ-LBD = biological target: T1, PPARγ-LBD (Homo sapiens, UniProt P37231); experiment: SPR full kinetic analysis on immobilized PPARγ-LBD; format: binding; conditions: for Kd: SPR full kinetic analysis, KD = Koff/Kon; for koff / kon: SPR, 25 °C, 5 μM to 312 nM, 1:1 model
T1 construct: PPARγ-LBD (NP_001120802; aa 207−474) was expressed as an N-terminal His-tagged protein; His-tag (N, cleaved yes); made in house; host or cells: E. coli BL21(DE3), pET-28a(+)
T1 sequence (P37231 207-474 isoform P37231-2 limits assumed): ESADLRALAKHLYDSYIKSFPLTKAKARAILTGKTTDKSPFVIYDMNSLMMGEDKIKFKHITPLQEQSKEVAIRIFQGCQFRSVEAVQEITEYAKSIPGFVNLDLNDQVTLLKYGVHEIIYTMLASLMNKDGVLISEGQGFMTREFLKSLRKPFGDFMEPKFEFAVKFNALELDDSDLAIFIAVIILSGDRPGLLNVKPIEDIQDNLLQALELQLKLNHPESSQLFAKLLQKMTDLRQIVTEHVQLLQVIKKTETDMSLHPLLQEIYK
Method: SPR experiments were performed at 25 °C using a Pioneer AE optical biosensor (Sartorius, Varedo, Italy) equipped with a PCH sensor chip (linear polycarboxylate hydrogel layer) and equilibrated with running buffer 10 mM Hepes, pH 7.4, 150 mM NaCl, 0.005% Tween-20, 1% DMSO. The PCH sensor chip was installed and conditioned in accordance with the manufacturer’s instructions. PPARγ-LBD was immobilized on the surface using amine coupling chemistry. Briefly, flow cells were activated for 5 min by injecting 125 μL of 1:1 ratio of 100 mM N-hydroxysuccinimide (NHS)/400 mM N-ethyl-N’-(3-(dimethylamino)propyl)carbodiimide (EDC). The protein solution (150 μg mL^−1 in 10 mM Na Acetate, pH 4.5) was then injected at 10 μL min^−1, followed by a 70 μL injection of 1 M ethanolamine (pH 8.0) to block any remaining activated groups on the surface. Approximately 11,770 and 10,800 RUs of protein were immobilized on Channel 1 and Channel 3 of the sensor chip, respectively, whereas Channel 2 was used as a reference for non-specific binding. […] The analytes were dialyzed in the running buffer (1% final DMSO concentration) and primary screened using OneStep® injection technology, which allows the compounds to diffuse into a moving stream of buffer to generate a concentration gradient (from 0 up to 10 μM) during a single injection at a flow rate of 50 μL min^−1 [40]. For each analyte injection, a long dissociation (600 s) was allowed, and regeneration of the sensing surface was not used. Next, the full kinetic analysis of the selected compounds was performed at different serial concentrations (from 5 μM to 312 nM) for 120 s at a constant flow rate of 50 μL min^−1. For each analyte injection, a dissociation of 180 s was allowed, followed by a short mild regeneration step with 1 M NaCl. All sensorgrams were processed using double referencing. First, responses from the reference surface (Channel 2) were subtracted from the binding responses collected over the reaction surfaces to correct for bulk refractive index changes between the flow buffer and analyte sample. Second, the response from the closest blank injection (zero analyte concentration) was subtracted to compensate for drift and small differences between the activated channel and the reference flow cell Channel 2. As an internal control for the gradient dispersion process, an injection of 3% sucrose dissolved in the assay buffer was performed for all the injections to ensure proper gradient formation and to calibrate for buffer viscosity. To obtain kinetic rate constants and affinity constants, the corrected response data were fitted in QDAT software provided with the instrument (BioLogic Software, Canberra, Australia). A kinetic analysis of the ligand/analyte interaction was obtained by fitting the response data to a reversible 1:1 bimolecular interaction model. The equilibrium dissociation constant (KD) was determined by the ratio Koff/Kon. This experiment was performed in duplicate.
The OneStep® injection technology was used for the screening of our compound collection. This method has been successfully employed in our previous work to test a series of natural products, extracted from medicinal plants. Its efficiency and reliability as a screening technique were confirmed by the rapid identification of promising compounds. This approach is based on the well-established concept of Taylor dispersion injection, which allows the compound to diffuse into a moving stream of buffer, producing a gradient throughout the injections. In this way, a wide range of analyte concentrations can be readily tested. In this assay, all the ligands from the DMSO stock solutions were dialyzed into the running buffer at 10 μM (1% final DMSO concentration) and gradient-injected for 120 s over the sensor chip surface. […]

[1] = biological target: T2, human PPARγ subtype (hPPARγ), Gal4-PPARγ-LBD (Homo sapiens, UniProt P37231); experiment: GAL4-PPAR transactivation assay, agonist mode; format: cell-based; conditions: HepG2, up to 100 µM; rosiglitazone maximum = 100%
T2 construct: expressed in transfected cells; host or cells: HepG2
T2 sequence (P37231 238-503 limits assumed): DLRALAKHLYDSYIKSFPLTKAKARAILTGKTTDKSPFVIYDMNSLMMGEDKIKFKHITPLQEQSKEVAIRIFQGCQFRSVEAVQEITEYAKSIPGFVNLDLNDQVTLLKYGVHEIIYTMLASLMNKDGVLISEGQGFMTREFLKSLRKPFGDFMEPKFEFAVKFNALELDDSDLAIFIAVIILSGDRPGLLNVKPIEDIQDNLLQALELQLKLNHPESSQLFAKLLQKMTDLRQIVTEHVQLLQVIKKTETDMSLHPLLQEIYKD
From the text: (§1) Reference compounds, the cell culture medium, and the reagents were purchased from Sigma-Aldrich (Merck KGaA). The expression vectors bearing the chimeric receptor containing the yeast Gal4-DNA binding domain fused to the human PPARγ-LBD, and the reporter plasmid for this Gal4 chimeric receptor (pGal5TKpGL3), comprising five repeats of the Gal4 response elements upstream of a minimal thymidine kinase promoter adjacent to the coding sequence for luciferase, were described in a previous study. A culture of the human hepatoblastoma cell line HepG2 (Interlab Cell Line Collection, Genoa, Italy) was conducted in minimum essential medium (MEM) containing 10% heat-inactivated fetal bovine serum, 100 U of penicillin G mL^−1, and 100 μg mL^−1 of streptomycin sulfate at 37 °C in a humidified atmosphere of 5% CO2. For transactivation assays, cells were seeded in a 24-well plate at a concentration of 10^5 cells per well and were transfected after 24 h by CAPHOS, a calcium phosphate method, according to the manufacturer’s guidelines. Cell transfection was performed using expression plasmids encoding the fusion protein Gal4-PPARγ-LBD (30 ng), pGal5TKpGL3 (100 ng), and pCMVβgal (250 ng). […] Cell extracts were subsequently analyzed for luciferase activity via luminometry (VICTOR^3 V multilabel plate reader; PerkinElmer, Waltham, MA, USA). ortho-Nitrophenyl-β-D-galactopyranoside was used to measure β-galactosidase activity, following a previously described method. […]
(§2) Furthermore, compounds 1–3 were evaluated in vitro for their agonist activity towards the human PPARγ subtype (hPPARγ) by employing the GAL4-PPAR transactivation assay. […] We evaluated the efficacy of 1–3 on PPARγ at increasing concentrations up to 100 μM. […] The compounds were also analyzed in antagonist mode by conducting a competitive binding assay, in which PPARγ activity was measured at a fixed concentration of the reference agonist rosiglitazone (1 µM) in cells treated with increasing concentrations of 1–3. […]

[2] = biological target: T2, human PPARγ subtype (hPPARγ), Gal4-PPARγ-LBD; experiment: GAL4-PPAR transactivation assay, antagonist mode (competition with rosiglitazone); format: cell-based; conditions: HepG2, antagonist mode vs rosiglitazone 1 µM; mean ± SEM; uncertain above 10 µM because of cytotoxicity
From the text: as §1, §2

HepG2 = experiment: Cytotoxicity seen by microscopy in the transactivation assay; format: cell-based, human; conditions: HepG2, at 25 and 100 µM, visually examined, data not shown
Method: Furthermore, compounds 1–3 were evaluated in vitro for their agonist activity towards the human PPARγ subtype (hPPARγ) by employing the GAL4-PPAR transactivation assay. The results were compared to the corresponding data for rosiglitazone, used as a reference in the test. The maximum fold induction obtained with the reference agonist was defined as 100%. We evaluated the efficacy of 1–3 on PPARγ at increasing concentrations up to 100 μM. […] The compounds were also analyzed in antagonist mode by conducting a competitive binding assay, in which PPARγ activity was measured at a fixed concentration of the reference agonist rosiglitazone (1 µM) in cells treated with increasing concentrations of 1–3. The inhibition curves, from which the IC50 values were extrapolated as mean ± SEM of three duplicate experiments, are reported in Figure 4A. […] Consequently, the IC50 values could not be estimated with a certainty above 10 µM, which was the threshold at which the cytotoxicity was null or negligible. From the inhibition curves (Figure 4A), we hypothesized the absence of antagonism: the activity remained unchanged up to 10 µM and then decreased at 25 µM and 100 µM. However, at these concentrations, the signal reduction could not be unequivocally attributed to PPARγ antagonism, due to the cytotoxic effects of the compounds at higher doses.

[3] = system: PPARγ Ser245 phosphorylation by CDK5/p35; experiment: In vitro kinase assay: CDK5-mediated phosphorylation of PPARγ-LBD (Pro-Q Diamond stain); format: biochemical; conditions: 10 µM ligand, 30 min at 30 °C
Method: The assay was performed on PPARγ-LBD, in the apo-form and in the complex with ligands 1–3. For the kinase assay, stock solutions of ligands were prepared by diluting with 100% DMSO to a concentration of 500 μM. The stock solutions were further diluted with 50 mM Tris-HCl, pH 7.5, up to the final concentration of 10 μM and pre-equilibrated overnight at 4 °C with the protein.
The kinase assay was carried out for 30 min at 30 °C in 50 μL of the assay buffer containing 50 mM Tris-HCl, pH 7.5, 800 ng of PPARγ-LBD, 10 μM ligand, 1% DMSO, 2.5 mM MgCl2, 50 μM DTT, 500 μM ATP, 40 ng of CDK5/p35 (Sigma-Aldrich code no. SRP5011; Merck KGaA). The experiment was performed in triplicate.
Pro-Q™ Diamond phosphoprotein gel stain (ThermoFisher, Waltham, MA, USA) provides a convenient method for selectively staining phosphoproteins in acrylamide gels, without the need for blotting or the use of phosphoprotein-specific antibodies. After performing electrophoresis, the gel was stained with Pro-Q™ Diamond and analyzed using a Chemidoc Imaging System (Bio-Rad). A further step of gel staining with SYPRO™ Ruby total-protein gel stain (ThermoFisher) was performed. Determining the ratio of the signal intensities of Pro-Q™ Diamond dye to SYPRO™ Ruby dye for each band provides a measure of the phosphorylation level normalized to the total amount of protein. More detailed information on the protocol used in this experiment can be obtained on the ThermoFisher website.
Finally, to assess the ability of 1–3 to inhibit the CDK5-mediated phosphorylation of PPARγ in vitro, a kinase assay was set up and optimized to measure the inhibition rate, as described in the experimental section. The phosphoproteins were detected and quantified by using the Pro-Q™ Diamond phosphoprotein gel stain method.

CDK5/p35 = biological target: T3, CDK5/p35 (Homo sapiens, UniProt Q00535); experiment: CDK5 inhibition test with histone H2A/H2B as substrate; format: biochemical; conditions: 5 µM ligand, H2a/H2b as phosphorylation target
T3 construct: purchased Sigma-Aldrich (Merck KGaA) SRP5011
Method: The degree of CDK5 inhibition in the presence of compounds 1, 2, and 3 was evaluated with the same protocol described above for the in vitro kinase assay. In detail, the test was carried out for 30 min at 30 °C in 50 μL of the assay buffer containing 50 mM Tris-HCl, pH 7.5, 800 ng H2A/H2B, 5 μM ligand (for the calculation of the ligand concentration, the excess amount of compounds 1, 2, and 3 possibly not bound to PPARγ was overestimated), 1% DMSO, 2.5 mM MgCl2, 50 μM DTT, 500 μM ATP, 40 ng of CDK5/p35 (Sigma-Aldrich code no. SRP5011; Merck KGaA). The Pro-Q™ Diamond Phosphoprotein Gel Stain method and a Chemidoc Imaging System (Bio-Rad) were used for measuring the phosphorylation level. The experiment was performed in triplicate and the statistical significance was estimated as above.
Furthermore, these molecules were also screened as potential inhibitors of CDK5 itself, considering their structural similarity to BLI (Figure 2), which was reported in the literature as both a PPARγ partial agonist and a CDK5 inhibitor [10]. A kinase activity test was performed in the presence of compounds 1, 2, and 3, using histone H2a/H2b as a phosphorylation target.

T3 sequence (Q00535 whole entry): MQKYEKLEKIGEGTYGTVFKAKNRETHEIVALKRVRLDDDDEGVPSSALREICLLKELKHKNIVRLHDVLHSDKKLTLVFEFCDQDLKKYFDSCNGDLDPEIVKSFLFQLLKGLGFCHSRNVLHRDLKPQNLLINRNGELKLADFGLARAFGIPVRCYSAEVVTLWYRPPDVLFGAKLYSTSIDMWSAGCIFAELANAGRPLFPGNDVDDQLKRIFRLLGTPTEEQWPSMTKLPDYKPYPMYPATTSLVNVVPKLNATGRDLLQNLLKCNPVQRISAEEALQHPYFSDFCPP
T3 sequence (Q15078 whole entry partner): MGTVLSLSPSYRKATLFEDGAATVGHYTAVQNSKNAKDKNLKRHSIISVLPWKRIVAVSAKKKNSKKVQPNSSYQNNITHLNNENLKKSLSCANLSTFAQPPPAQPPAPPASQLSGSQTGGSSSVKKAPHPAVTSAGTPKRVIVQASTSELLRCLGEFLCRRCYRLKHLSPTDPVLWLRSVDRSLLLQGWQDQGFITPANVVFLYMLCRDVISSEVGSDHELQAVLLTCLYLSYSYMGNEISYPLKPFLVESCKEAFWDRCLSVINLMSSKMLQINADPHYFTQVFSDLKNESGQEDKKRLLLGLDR

| Compound | Kd (PPARγ-LBD) | koff (PPARγ-LBD) | kon (PPARγ-LBD) | agonist activity in the PPARγ transactivation assay [1] | IC50 [2] | cytotoxicity (HepG2) | inhibition of Ser245 phosphorylation [3] | CDK5 inhibition (CDK5/p35) | melting point |
| --- | --- | --- | --- | --- | --- | --- | --- | --- | --- |
| O=C1OC(c2ccc(OCc3cccc4ccccc34)cc2)C(c2ccccc2)=C1O (stereo not drawn) [Compound 3, 3-Hydroxy-5-(4-(naphthalen-1-ylmethoxy)phenyl)-4-phenylfuran-2(5H)-one] | 1.67 ± 0.02 µM | 0.0362 ± 0.0001 s⁻¹ | 21700 ± 2e+06 M⁻¹ s⁻¹ | PPARγ non-agonists | 16.2 ± 2.5 µM | a certain cytotoxicity | ~40% | more significant inhibitory activity | 204 °C |
| O=C1OC(c2cccc(O)c2)C(C(=O)c2ccccc2)=C1O (stereo not drawn) [Compound 2, 4-Benzoyl-3-hydroxy-5-(3-hydroxyphenyl)furan-2(5H)-one] | 1.93 ± 0.02 µM | 0.02241 ± 9e-05 s⁻¹ | 11700 ± 1e+06 M⁻¹ s⁻¹ | PPARγ non-agonists | 35.1 ± 2.8 µM |  | ~40% | more significant inhibitory activity |  |
| O=C1OC(c2cccc(O)c2)C(c2ccc(Br)cc2)=C1O (stereo not drawn) [Compound 1, 4-(4-Bromophenyl)-3-hydroxy-5-(3-hydroxyphenyl)furan-2(5H)-one] | 3.75 ± 0.06 µM | 0.0679 ± 0.0004 s⁻¹ | 18100 ± 3e+06 M⁻¹ s⁻¹ | PPARγ non-agonists | 39.9 ± 1.2 µM |  | ~40% | very low inhibition effect | 194 to 195 °C (dec.) |
